Tested on: HT-29 cells
Assay: HT-29 necroptosis cell viability assay (TNF-α/SMAC mimetic/zVAD-FMK, CellTiter-Glo)
Type: cell-based
Details: Homo sapiens, HT-29, HT-29 necroptosis cell viability, IC50 class symbols; read-out: Activity
How it was run: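 Necroptosis was triggered by TNF-α (10 ng/ml), SMAC mimetic (6 μM) and zVAD-FMK (10 μM) in serum-free medium during 20 h compound exposure (10 concentrations, threefold steps) of HT-29 cells. IC50 from duplicate dose-responses uses CellTiter-Glo ATP luminescence as viability read-out.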

Row | SMILES | IC50
1 | Cc1cc(-n2ncn(Cc3c(F)cccc3F)c2=O)ccc1Oc1cc(NC23CC(C#N)(C2)C3)ncc1F [Example 308, 3-((4-(4-(4-(2,6-difluorobenzyl)-5-oxo-4,5-dihydro-1H-1,2,4-triazol-1-yl)-2-methylphenoxy)-5-fluoropyridin-2-yl)amino)bicyclo[1.1.1]pentane-1-carbonitrile] | 0.1 to 1 µM
2 | CC(C)(C)OC(=O)Nc1cc(Oc2ccc(-n3ncn(Cc4c(F)cccc4F)c3=O)cc2)ccn1 [Example 309, tert-butyl (4-(4-(4-(2,6-difluorobenzyl)-5-oxo-4,5-dihydro-1H-1,2,4-triazol-1-yl)phenoxy)pyridin-2-yl)carbamate] | < 0.1 µM
3 | Nc1cc(Oc2ccc(-n3ncn(Cc4c(F)cccc4F)c3=O)cc2)ccn1 [Example 310, 2-(4-((2-aminopyridin-4-yl)oxy)phenyl)-4-(2,6-difluorobenzyl)-2,4-dihydro-3H-1,2,4-triazol-3-one] | 0.1 to 1 µM
4 | CC(C)(C)OC(=O)Nc1cc(Oc2ccc(-n3ncn(Cc4ccccc4)c3=O)cc2)ccn1 [Example 311, tert-butyl (4-(4-(4-benzyl-5-oxo-4,5-dihydro-1H-1,2,4-triazol-1-yl)phenoxy)pyridin-2-yl)carbamate] | 0.1 to 1 µM
5 | Cc1nc(CC2CNC2)sc1Oc1ccc(-n2ncn(Cc3c(F)cccc3F)c2=O)cc1 [Example 312, 2-(4-((2-(azetidin-3-ylmethyl)-4-methylthiazol-5-yl)oxy)phenyl)-4-(2,6-difluorobenzyl)-2,4-dihydro-3H-1,2,4-triazol-3-one] | < 0.1 µM
6 | N#CC12CC(Nc3nccc(Oc4ccc(-n5ncn(Cc6c(F)cccc6F)c5=O)cc4Cl)c3Cl)(C1)C2 [Example 313, 3-((3-chloro-4-(2-chloro-4-(4-(2,6-difluorobenzyl)-5-oxo-4,5-dihydro-1H-1,2,4-triazol-1-yl)phenoxy)pyridin-2-yl)amino)bicyclo[1.1.1]pentane-1-carbonitrile] | 0.1 to 1 µM
7 | COC1(C#N)CN(c2cc(Oc3ccc(-n4ncn(Cc5c(F)cccc5F)c4=O)cc3Cl)ccn2)C1 [Example 314, 1-(4-(2-chloro-4-(4-(2,6-difluorobenzyl)-5-oxo-4,5-dihydro-1H-1,2,4-triazol-1-yl)phenoxy)pyridin-2-yl)-3-methoxyazetidine-3-carbonitrile] | < 0.1 µM
8 | O=c1n(Cc2c(F)cccc2F)cnn1-c1ccc(Oc2ccnc(N3CC4(CCN4)C3)c2)cc1 [Example 315, 2-(4-((2-(1,6-diazaspiro[3.3]heptan-6-yl)pyridin-4-yl)oxy)phenyl)-4-(2,6-difluorobenzyl)-2,4-dihydro-3H-1,2,4-triazol-3-one] | < 0.1 µM
9 | C[C@H]1C[C@H](N)CN1c1cc(Oc2ccc(-n3ncn(Cc4c(F)cccc4F)c3=O)cc2)ccn1 [Example 316, 2-(4-((2-((2S,4S)-4-amino-2-methylpyrrolidin-1-yl)pyridin-4-yl)oxy)phenyl)-4-(2,6-difluorobenzyl)-2,4-dihydro-3H-1,2,4-triazol-3-one] | < 0.1 µM
10 | CC(C)(C)OC(=O)N1CCC12CN(c1cc(Oc3ccc(-n4ncn(Cc5c(F)cccc5F)c4=O)cc3)ccn1)C2 [Example 317, tert-butyl 6-(4-(4-(4-(2,6-difluorobenzyl)-5-oxo-4,5-dihydro-1H-1,2,4-triazol-1-yl)phenoxy)pyridin-2-yl)-1,6-diazaspiro[3.3]heptane-1-carboxylate] | 1 to 10 µM
11 | CCNC1CN(c2cc(Oc3ccc(-n4ncn(Cc5c(F)cccc5F)c4=O)cc3)ccn2)C1 [Example 318, 4-(2,6-difluorobenzyl)-2-(4-((2-(3-(ethylamino)azetidin-1-yl)pyridin-4-yl)oxy)phenyl)-2,4-dihydro-3H-1,2,4-triazol-3-one] | 0.1 to 1 µM
12 | COC1(C#N)CN(c2cc(Oc3ccc(-n4ncn(Cc5c(F)cccc5F)c4=O)cc3)c(Cl)cn2)C1 [Example 319, 1-(5-chloro-4-(4-(4-(2,6-difluorobenzyl)-5-oxo-4,5-dihydro-1H-1,2,4-triazol-1-yl)phenoxy)pyridin-2-yl)-3-methoxyazetidine-3-carbonitrile] | < 0.1 µM
13 | COC1(C#N)CN(c2cc(Oc3ccc(-n4ncn(Cc5c(F)cccc5F)c4=O)cc3)c(C)cn2)C1 [Example 320, 1-(4-(4-(4-(2,6-difluorobenzyl)-5-oxo-4,5-dihydro-1H-1,2,4-triazol-1-yl)phenoxy)-5-methylpyridin-2-yl)-3-methoxyazetidine-3-carbonitrile] | < 0.1 µM
14 | CC1(N)CN(c2nccc(Oc3ccc(-n4ncn(Cc5c(F)cccc5F)c4=O)cc3)c2F)C1 [Example 321, 2-(4-((2-(3-amino-3-methylazetidin-1-yl)-3-fluoropyridin-4-yl)oxy)phenyl)-4-(2,6-difluorobenzyl)-2,4-dihydro-3H-1,2,4-triazol-3-one] | < 0.1 µM
15 | NC1CN(c2cc(Oc3ccc(-n4ncn(Cc5c(F)cccc5F)c4=O)cc3)ccn2)C1 [Example 322, 2-(4-((2-(3-aminoazetidin-1-yl)pyridin-4-yl)oxy)phenyl)-4-(2,6-difluorobenzyl)-2,4-dihydro-3H-1,2,4-triazol-3-one] | 0.1 to 1 µM
16 | CC1(C#N)CN(c2cc(Oc3ccc(-n4ncn(Cc5c(F)cccc5F)c4=O)cc3)c(F)cn2)C1 [Example 323, 1-(4-(4-(4-(2,6-difluorobenzyl)-5-oxo-4,5-dihydro-1H-1,2,4-triazol-1-yl)phenoxy)-5-fluoropyridin-2-yl)-3-methylazetidine-3-carbonitrile] | 0.1 to 1 µM
17 | CCOC1CN(c2cc(Oc3ccc(-n4ncn(Cc5c(F)cccc5F)c4=O)cc3)c(F)cn2)C1 [Example 324, 4-(2,6-difluorobenzyl)-2-(4-((2-(3-ethoxyazetidin-1-yl)-5-fluoropyridin-4-yl)oxy)phenyl)-2,4-dihydro-3H-1,2,4-triazol-3-one] | < 0.1 µM
18 | N#CC12CC(Nc3cc(Oc4ccc(-n5ncn(Cc6c(F)cccc6F)c5=O)cc4)c(Cl)cn3)(C1)C2 [Example 325, 3-((5-chloro-4-(4-(4-(2,6-difluorobenzyl)-5-oxo-4,5-dihydro-1H-1,2,4-triazol-1-yl)phenoxy)pyridin-2-yl)amino)bicyclo[1.1.1]pentane-1-carbonitrile] | < 0.1 µM
19 | CCOC1CN(c2cc(Oc3ccc(-n4ncn(Cc5c(F)cccc5F)c4=O)cc3)c(Cl)cn2)C1 [Example 326, 2-(4-((5-chloro-2-(3-ethoxyazetidin-1-yl)pyridin-4-yl)oxy)phenyl)-4-(2,6-difluorobenzyl)-2,4-dihydro-3H-1,2,4-triazol-3-one] | < 0.1 µM
20 | CC(C)(C)OC(=O)NC1CN(c2cc(Oc3ccc(-n4ncn(Cc5c(F)cccc5F)c4=O)cc3)ccn2)C1 [Example 327, tert-butyl (1-(4-(4-(4-(2,6-difluorobenzyl)-5-oxo-4,5-dihydro-1H-1,2,4-triazol-1-yl)phenoxy)pyridin-2-yl)azetidin-3-yl)carbamate] | < 0.1 µM
21 | O=c1n(Cc2c(F)cccc2F)cnn1-c1ccc(Oc2ccnc(NC3CC(F)(F)C3)c2)cc1 [Example 328, 4-(2,6-difluorobenzyl)-2-(4-((2-((3,3-difluorocyclobutyl)amino)pyridin-4-yl)oxy)phenyl)-2,4-dihydro-3H-1,2,4-triazol-3-one] | 0.1 to 1 µM
22 | CC1(O)CN(c2cc(Oc3ccc(-n4ncn(Cc5c(F)cccc5F)c4=O)cc3)ccn2)C1 [Example 329, 4-(2,6-difluorobenzyl)-2-(4-((2-(3-hydroxy-3-methylazetidin-1-yl)pyridin-4-yl)oxy)phenyl)-2,4-dihydro-3H-1,2,4-triazol-3-one] | < 0.1 µM
23 | O=c1n(Cc2c(F)cccc2F)cnn1-c1ccc(Oc2ccnc(N3CCC4(CCOC4)C3)c2)cc1 (stereo not drawn) [Example 330, 2-(4-((2-(2-oxa-7-azaspiro[4.4]nonan-7-yl)pyridin-4-yl)oxy)phenyl)-4-(2,6-difluorobenzyl)-2,4-dihydro-3H-1,2,4-triazol-3-one] | < 0.1 µM
24 | O=c1n(Cc2c(F)cccc2F)cnn1-c1ccc(Oc2ccnc(N3CC4(CCCO4)C3)c2)cc1 [Example 331, 2-(4-((2-(5-oxa-2-azaspiro[3.4]octan-2-yl)pyridin-4-yl)oxy)phenyl)-4-(2,6-difluorobenzyl)-2,4-dihydro-3H-1,2,4-triazol-3-one] | < 0.1 µM
25 | NC1CC2(C1)CC(Nc1cc(Oc3ccc(-n4ncn(Cc5c(F)cccc5F)c4=O)cc3)ccn1)C2 (stereo not drawn) [Example 332, 2-(4-((2-((6-aminospiro[3.3]heptan-2-yl)amino)pyridin-4-yl)oxy)phenyl)-4-(2,6-difluorobenzyl)-2,4-dihydro-3H-1,2,4-triazol-3-one] | 0.1 to 1 µM
26 | O=c1n(Cc2c(F)cccc2F)cnn1-c1ccc(Oc2ccnc(N3CCC4(COC4)C3)c2)cc1 [Example 333, 2-(4-((2-(2-oxa-6-azaspiro[3.4]octan-6-yl)pyridin-4-yl)oxy)phenyl)-4-(2,6-difluorobenzyl)-2,4-dihydro-3H-1,2,4-triazol-3-one] | < 0.1 µM
27 | O=c1n(Cc2c(F)cccc2F)cnn1-c1ccc(Oc2ccnc(N3CC4(CCCCO4)C3)c2)cc1 [Example 334, 2-(4-((2-(5-oxa-2-azaspiro[3.5]nonan-2-yl)pyridin-4-yl)oxy)phenyl)-4-(2,6-difluorobenzyl)-2,4-dihydro-3H-1,2,4-triazol-3-one] | < 0.1 µM
28 | O=c1n(Cc2c(F)cccc2F)cnn1-c1ccc(Oc2ccnc(N3CC4(CCCOC4)C3)c2)cc1 [Example 335, 2-(4-((2-(6-oxa-2-azaspiro[3.5]nonan-2-yl)pyridin-4-yl)oxy)phenyl)-4-(2,6-difluorobenzyl)-2,4-dihydro-3H-1,2,4-triazol-3-one] | < 0.1 µM
29 | CCOC1CN(c2cc(Oc3ccc(-n4ncn(Cc5c(F)cccc5F)c4=O)cc3)ccn2)C1 [Example 336, 4-(2,6-difluorobenzyl)-2-(4-((2-(3-ethoxyazetidin-1-yl)pyridin-4-yl)oxy)phenyl)-2,4-dihydro-3H-1,2,4-triazol-3-one] | < 0.1 µM
30 | CC1CCN(c2cc(Oc3ccc(-n4ncn(Cc5c(F)cccc5F)c4=O)cc3)ccn2)C1 (stereo not drawn) [Example 337, 4-(2,6-difluorobenzyl)-2-(4-((2-(3-methylpyrrolidin-1-yl)pyridin-4-yl)oxy)phenyl)-2,4-dihydro-3H-1,2,4-triazol-3-one] | < 0.1 µM

From US20250179061A1 (SIRONAX LTD., priority 2022, published 2025)
